Measured values from patent US5705687A, “Neurotropic drug and method for preparation of same” (priority 1993, dated 1998).
Where “and” joins values, the source holds several entries; their conditions need not be identical. Identical values can stand only once. Counter-ions that a name gives are not always drawn.

Key:
[1] = Acute toxicity in mice (Litchfield-Wilcockson); assay type: in vivo, white crossbred mice; settings: mouse, in vivo
mice [2] = assay: Acute toxicity in mice (Litchfield-Wilcockson); assay type: in vivo, white crossbred mice; settings: i.p., single dose
mice [3] = assay: Rotating rod: myorelaxation and movement coordination; assay type: in vivo, white crossbred mice; settings: same dosage range (0.1 to 150 mg/kg), entire test period 3.5 hours
Procedure: (§1) The myorelaxing effect of the new compounds was tested by the method of the "rotating rod"(Dunham N. W., Miga T. S., A note on a simplex apparatus for detecting neurological deficit in rat and mice, J. Am. Pharm. Ass., 1957, vol. 46, No. 3, pp. 208-209), which allows one to record any abnormalities in coordination and balance, as well as ataxia. The mice in the laboratory tests were placed on a horizontal rod, 2 cm in diameter, rotating at a speed of 5 revolutions per minute. The object was to register the number of mice which were able to maintain equilibrium on the rod for two minutes. Any presence of a myorelaxing component was considered to be a side effect of the substance being studied.

mice [4] = assay: Hypoxic (hypercapnic) normobaric hypoxia, lifespan; assay type: in vivo; settings: for Average lifespan: control 411 ± 11.9, P < 0.001; for Lifespan, % effect: control = 100
Procedure: (§2) The antihypoxic properties of the new compounds were tested in the models of hypoxic normobaric, hemic and histotoxic hypoxia. The hypoxic (hypercapnic) normobaric hypoxia was induced by placing the mice in hermetically sealed transparent boxes, subdivided into compartments, 80 cm^3 each. The animals were observed until all respiratory movements ceased. The hemic hypoxia was induced by the intraperitoneal administration of sodium nitrite in a dose of 400 mg/kg. The hystotoxic hypoxia was induced by the intraperitoneal administration of sodium nitroprussiate, in a dose of a 20 mg/kg dosage.

mice [5] = assay: Histotoxic hypoxia (sodium nitroprussiate), lifespan; assay type: in vivo; settings: for Lifespan, % effect: Na-nitro-prussiate alone = 100
Procedure: as §2

mice [6] = assay: Hemic hypoxia (sodium nitrite), lifespan; assay type: in vivo; settings: for Lifespan, % effect: Na-nitrite alone = 100
Procedure: as §2

[7] = Solubility and hygroscopicity; assay type: physicochemical; settings: powder
central nervous system = assay: Neuropharmacological screening, overall findings; assay type: in vivo, mice; settings: of all the salts derived
Procedure: as §1

mice [8] = assay: Soporific action of hexobarbital; settings: for Duration of sleep, % effect / Lateral position, % effect: hexobarbital alone = 100
mice [9] = assay: Soporific action of barbital sodium; settings: for Duration of sleep, % effect / Lateral position, % effect: barbital sodium alone = 100; for increase of sleep duration over control group: barbital sodium
mice [10] = assay: Orientation reflexes: test of ascent onto an inclined net; settings: 0.1 to 150 mg/kg
mice [11] = assay: Spontaneous motor activity (SMA), 40-channel automatic motor meter; settings: for Average SMA, M ± m: control 632.8 ± 35.2; for Relative change in activity (%): control = 100
[12] = 1 mg/kg i.p. + hexobarbital 100 mg/kg

Structure (SMILES): CC(C)(CO)C(=O)C(=O)NCCCC(=O)O [KPA-Ca, calcium salt of ketopantoyl aminobutyrate]
- LD50 ([1]; intravenous, read-out: DL50 (the source's name)): 1040 ± 13.5 mg/kg
- MTD ([1]; ip, read-out: maximum tolerance level): 1500 mg/kg
- LD10 (acute toxicity) (mice [2]): 2234.3 ± 60.7 mg/kg
- ataxia, myorelaxation, loss of movement coordination (mice [3]): did not induce any ataxia, myorelaxation or loss of movement coordination
- Average lifespan (mice [4]; 10 mg/kg): 558 ± 21.5 s
- Lifespan, % effect (mice [4]; 10 mg/kg): 135.8%
- Average lifespan (mice [4]; 25 mg/kg): 570 ± 17.3 s
- Lifespan, % effect (mice [4]; 25 mg/kg): 138.7%
- Average lifespan (mice [4]; 50 mg/kg): 588 ± 22.4 s
- Lifespan, % effect (mice [4]; 50 mg/kg): 143.1%
- Average lifespan (mice [4]; 100 mg/kg): 600 ± 30.7 s
- Lifespan, % effect (mice [4]; 100 mg/kg): 146%
- extension of lifespan compared to control group (mice [4]; 10 to 100 mg/kg): 35.8-46%
- Average lifespan (mice [5]; 10 mg/kg + Na-nitro-prussiate 20 mg/kg): 798 ± 38 s
- Lifespan, % effect (mice [5]; 10 mg/kg): 104.3%
- Average lifespan (mice [5]; 25 mg/kg + Na-nitro-prussiate 20 mg/kg): 855 ± 43.2 s
- Lifespan, % effect (mice [5]; 25 mg/kg): 111.8%
- increase in lifespan (mice [5]; 50 mg/kg): 21.6%
- Average lifespan (mice [5]; 50 mg/kg + Na-nitro-prussiate 20 mg/kg, P < 0.05): 930 ± 55.1 s
- Lifespan, % effect (mice [5]; 50 mg/kg): 121.6%
- increase in lifespan (mice [5]; 100 mg/kg): 38.4%
- Average lifespan (mice [5]; 100 mg/kg + Na-nitro-prussiate 20 mg/kg, P < 0.01): 1059 ± 64 s
- Lifespan, % effect (mice [5]; 100 mg/kg): 138.4%
- Average lifespan (mice [6]; 10 mg/kg + Na-nitrite 400 mg/kg): 777 ± 30.1 s
- Lifespan, % effect (mice [6]; 10 mg/kg): 98.3%
- Average lifespan (mice [6]; 25 mg/kg + Na-nitrite 400 mg/kg): 780 ± 30.3 s
- Lifespan, % effect (mice [6]; 25 mg/kg): 98.7%
- Average lifespan (mice [6]; 50 mg/kg + Na-nitrite 400 mg/kg): 819 ± 41 s
- Lifespan, % effect (mice [6]; 50 mg/kg): 103.6%
- increase in effect (lifespan) (mice [6]; 100 mg/kg): 19.9%
- Average lifespan (mice [6]; 100 mg/kg + Na-nitrite 400 mg/kg, P < 0.01): 948 ± 40.3 s
- Lifespan, % effect (mice [6]; 100 mg/kg): 119.9%
- activity in hemic hypoxia (in words) (mice [6]; 10 to 100 mg/kg): little activity
- hygroscopicity [7]: hygroscopic
- properties compared with the other salts (central nervous system): best properties
- Duration of sleep (mice [8]; [12]): 44.6 ± 5.2 min
- Lateral position (mice [8]; [12]): 2.5 ± 0.17 min
- Duration of sleep, % effect (mice [8]; 1 mg/kg): 96.3%
- Lateral position, % effect (mice [8]; 1 mg/kg): 104.2%
- Lateral position (mice [8]; 10 mg/kg i.p. + hexobarbital 100 mg/kg): 2.4 ± 0.16 min
- Duration of sleep (mice [8]; 10 mg/kg i.p. + hexobarbital 100 mg/kg, P < 0.01): 67.2 ± 4.3 min
- Duration of sleep, % effect (mice [8]; 10 mg/kg): 145.1%
- Lateral position, % effect (mice [8]; 10 mg/kg): 100%
- Lateral position (mice [8]; 25 mg/kg i.p. + hexobarbital 100 mg/kg): 2.5 ± 0.2 min
- Duration of sleep (mice [8]; 25 mg/kg i.p. + hexobarbital 100 mg/kg, P < 0.001): 60.6 ± 1.9 min
- Duration of sleep, % effect (mice [8]; 25 mg/kg): 130.9%
- Lateral position, % effect (mice [8]; 25 mg/kg): 104.2%
- Lateral position (mice [8]; 50 mg/kg i.p. + hexobarbital 100 mg/kg): 2.3 ± 0.15 min
- Duration of sleep (mice [8]; 50 mg/kg i.p. + hexobarbital 100 mg/kg, P < 0.001): 70.7 ± 3.1 min
- increase of sleep duration (mice [8]; 50 mg/kg, hexobarbital): 52.7%
- Duration of sleep, % effect (mice [8]; 50 mg/kg): 152.7%
- Lateral position, % effect (mice [8]; 50 mg/kg): 95.8%
- Lateral position (mice [8]; 100 mg/kg i.p. + hexobarbital 100 mg/kg): 2.4 ± 0.22 min
- Duration of sleep (mice [8]; 100 mg/kg i.p. + hexobarbital 100 mg/kg, P < 0.001): 93.7 ± 4.3 min
- increase of sleep duration over control group (maximum effect) (mice [8]; 100 mg/kg, hexobarbital): 102.4%
- Duration of sleep, % effect (mice [8]; 100 mg/kg): 202.4%
- Lateral position, % effect (mice [8]; 100 mg/kg): 100%
- Lateral position (mice [8]; 150 mg/kg i.p. + hexobarbital 100 mg/kg): 2.5 ± 0.34 min
- Duration of sleep (mice [8]; 150 mg/kg i.p. + hexobarbital 100 mg/kg, P < 0.001): 86.4 ± 4 min
- Duration of sleep, % effect (mice [8]; 150 mg/kg): 186.6%
- Lateral position, % effect (mice [8]; 150 mg/kg): 104.2%
- change in effect on raising the dose (mice [8]; above 100 mg/kg): not noticeable change in the effect
- effect on the lateral position (mice [8]; hexobarbital): no effect on the lateral position
- Duration of sleep, % effect (mice [9]; 1 mg/kg): 99.9%
- Lateral position, % effect (mice [9]; 1 mg/kg): 69.6%
- Duration of sleep, % effect (mice [9]; 10 mg/kg): 122.7%
- Lateral position, % effect (mice [9]; 10 mg/kg): 61.4%
- increase of sleep duration over control group (mice [9]; 25 mg/kg): 126.5%
- Duration of sleep, % effect (mice [9]; 25 mg/kg): 226.5%
- Lateral position, % effect (mice [9]; 25 mg/kg): 67.3%
- increase of sleep duration over control group (mice [9]; 50 mg/kg): 95.1% and 95%
- Duration of sleep, % effect (mice [9]; 50 mg/kg): 195.1%
- Lateral position, % effect (mice [9]; 50 mg/kg): 68.7%
- Duration of sleep, % effect (mice [9]; 100 mg/kg): 229.3%
- Lateral position, % effect (mice [9]; 100 mg/kg): 66.7%
- increase of sleep duration over control group (mice [9]): 129.3%
- effect on exploratory behaviour (mice [10]): does not disturb the "exploratory" behaviour
- decrease in number of runs in the motor meter (the same result) (mice [11]; 10 mg/kg): 30%
- dose for 30% decrease in runs, compared with pantogam dose (mice [11]; 10 mg/kg KPA-Ca vs 500 mg/kg pantogam): 50 times less
- Average SMA, M ± m (mice [11]; 10 mg/kg i.p., 60 min before, number of runs): 482.8 ± 101.8
- Relative change in activity (%) (mice [11]; 10 mg/kg i.p.): 76.3%
- Average SMA, M ± m (mice [11]; 25 mg/kg i.p., P < 0.01): 369.1 ± 68.7
- Relative change in activity (%) (mice [11]; 25 mg/kg i.p.): 58.3%
- Average SMA, M ± m (mice [11]; 50 mg/kg i.p., P < 0.01): 338.9 ± 74.5
- Relative change in activity (%) (mice [11]; 50 mg/kg i.p.): 53.6%
- Average SMA, M ± m (mice [11]; 100 mg/kg i.p., P < 0.01): 270.4 ± 75.3
- Relative change in activity (%) (mice [11]; 100 mg/kg i.p.): 42.7%
- decrease in motor activity (the same effect) (mice [11]; 150 mg/kg): 70%
- Average SMA, M ± m (mice [11]; 150 mg/kg i.p., P < 0.001): 190.6 ± 28.2
- Relative change in activity (%) (mice [11]; 150 mg/kg i.p.): 30.1%
- dose of greatest effect on motor activity (mice [11]; SMA test, mice): 150 mg/kg
- effect on motor activity (in words) (mice [11]; SMA test, mice): decreases the motor activity
